Laboratory results taken from US5698581A, “Substituted N-heteroaroylguanidines, a process for their preparation, their use as a medicament or diagnostic agent, and a medicament containing them” (Hoechst Aktiengesellschaft, priority 1994, dated 1997).

The molecules below were run against T1, Na^+ /H^+ exchanger of rabbit erythrocytes (Oryctolagus cuniculus, UniProt P23791) (assay: Inhibition of the Na^+ /H^+ exchanger of rabbit erythrocytes (amiloride-sensitive sodium influx, flame photometry)). Conditions: pH 7.4, 37° C., rabbits on 2% cholesterol diet.
T1 construct: determine the Na^+ influx into the erythrocytes via Na^+ /H^+ exchange; endogenous in cells; host or cells: erythrocytes in whole blood of cholesterol-fed New Zealand White rabbits
Type: cell-based, rabbit (New Zealand White)
From the text: Inhibition of the Na^+ /H^+ exchanger of rabbit erythrocytes
New Zealand White rabbits (Ivanovas) were given a standard diet containing 2% cholesterol for six weeks in order to activate Na^+ /H^+ exchange and thus to be able to use flame photometry to determine the Na^+ influx into the erythrocytes via Na^+ /H^+ exchange. The blood was removed from the aural arteries and rendered incoagulable by the addition of 25 IU of potassium heparin. One part of each sample was used for the duplicate determination of the hematocrit by centrifugation. Aliquots of in each case 100 μl were employed for measuring the initial content of Na^+ in the erythrocytes.
In order to determine the amiloride-sensitive sodium influx, 100 μl of each blood sample were in each case incubated, at pH 7.4 and 37° C., in 5 ml of a hyperosmolar salt/sucrose medium (mmol/l: 140 NaCl, 3 KCl, 150 sucrose, 0.1 ouabain, 20 tris(hydroxymethyl)aminomethane). The erythrocytes were then washed three times with ice cold MgCl2 /ouabain solution (mmol/l: 112 MgCl2, 0.1 ouabain) and hemolyzed in 2.0 ml of distilled water. The intracellular content of sodium was determined by flame photometry.
The nett influx of Na^+ was calculated from the difference between the initial sodium values and the sodium content of the erythrocytes following incubation. The amiloride-inhibitable sodium Influx was given by the difference in the sodium content of the erythrocytes following incubation with and without 3×10^-4 mol/l amiloride. The same procedure was also used in the case of the compounds according to the invention.

T1 sequence (P23791 whole entry): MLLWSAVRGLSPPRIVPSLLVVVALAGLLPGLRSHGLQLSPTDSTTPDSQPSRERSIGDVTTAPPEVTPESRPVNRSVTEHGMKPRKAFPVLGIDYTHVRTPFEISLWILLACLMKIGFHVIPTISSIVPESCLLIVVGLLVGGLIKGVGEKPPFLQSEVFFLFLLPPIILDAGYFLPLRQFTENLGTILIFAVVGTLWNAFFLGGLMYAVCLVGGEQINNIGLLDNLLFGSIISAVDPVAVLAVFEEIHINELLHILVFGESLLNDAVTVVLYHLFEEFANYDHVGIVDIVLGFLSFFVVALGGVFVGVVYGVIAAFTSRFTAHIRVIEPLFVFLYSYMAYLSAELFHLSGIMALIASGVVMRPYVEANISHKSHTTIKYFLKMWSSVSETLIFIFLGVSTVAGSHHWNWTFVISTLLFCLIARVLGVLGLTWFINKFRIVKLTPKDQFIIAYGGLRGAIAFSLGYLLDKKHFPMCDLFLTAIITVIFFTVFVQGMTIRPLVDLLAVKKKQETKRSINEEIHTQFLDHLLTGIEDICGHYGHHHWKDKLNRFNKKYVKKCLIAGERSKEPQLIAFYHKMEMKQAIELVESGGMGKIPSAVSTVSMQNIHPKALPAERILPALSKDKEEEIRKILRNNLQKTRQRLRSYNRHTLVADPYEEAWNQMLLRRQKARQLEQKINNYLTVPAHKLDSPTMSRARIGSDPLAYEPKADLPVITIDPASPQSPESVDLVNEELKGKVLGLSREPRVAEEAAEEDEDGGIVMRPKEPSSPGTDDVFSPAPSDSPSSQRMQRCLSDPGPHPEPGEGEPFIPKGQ

Structure (SMILES) | IC50
Cn1c(C(=O)N=C(N)N)ccc1C(F)(C(F)(F)F)C(F)(F)F [Example 1, 5-Heptafluoroisopropyl-1-methylpyrrole-2-carboguanidide] | 300 nM
Cn1c(C(=O)N=C(N)N)ccc1C(F)(F)C(F)(F)C(F)(F)F [Example 2, 5-Heptafluoro-n-propyl-1-methylpyrrole-2-carboguanidide] | 1000 nM
Cn1c(C(=O)N=C(N)N)ccc1C(F)(F)F [Example 4, 5-Trifluoromethyl-1-methylpyrrole-2-carboguanidide] | 200 nM
CC(C)c1sc(C(=O)N=C(N)N)cc1S(C)(=O)=O [Example 6, 5-Isopropyl-4-methylsulfonylthiophene-2-carboguanidide] | 500 nM
NC(N)=NC(=O)c1cc(Br)c(Br)s1 [Example 8, 4,5-Dibromothiophene-2-carboguanidide] | 500 nM

The remaining molecules from weak to strong by IC50, led by results:

IC50 | Structure (SMILES)
5000 nM | Cn1cccc1C(=O)N=C(N)N [Example 5, 1-Methylpyrrole-2-carboguanidide]
3000 nM | Cc1ccc(C(=O)N=C(N)N)s1 [Example 7, 5Methylthiophene-2-carboguanidide]
300 nM | Cn1c(C(=O)N=C(N)N)ccc1C(F)(F)C(F)(F)F [Example 3, 5-Pentafluoroethyl-1-methylpyrrole-2-carboguanidide]
